The term pIC50 denotes the negative decadic logarithm of the IC50, by convention in mol/L. Read a high pIC50 as a low IC50.

pIC50: −log10 of the molar value. Where two headings read alike, the source gives them in different places. A value given as a limit tells only on which side of the number the result lay.

Experimental findings from patent US9212153B2, “Inhibitors of beta-secretase” (Vitae Pharmaceuticals, Inc., priority 2009, dated 2015) are described below.

Test [1] has as its target truncated human beta-secretase (residues 1-458, His6-tagged at the C-terminus) (Homo sapiens (Human), UniProt P56817). The test is described as follows: BACE enzyme assay (fluorescence quench, Example 434A). Type of test: biochemical.
Another test deals with BACE (Homo sapiens (Human), UniProt P56817). Briefly: BACE cell assay (H4-APPsw cells, secreted Aβ 1-40 by AlphaLISA/ELISA). Type of test: cell-based. The note with it: in vitro cell activity.
Sequence of BACE (P56817 46-501 limits assumed): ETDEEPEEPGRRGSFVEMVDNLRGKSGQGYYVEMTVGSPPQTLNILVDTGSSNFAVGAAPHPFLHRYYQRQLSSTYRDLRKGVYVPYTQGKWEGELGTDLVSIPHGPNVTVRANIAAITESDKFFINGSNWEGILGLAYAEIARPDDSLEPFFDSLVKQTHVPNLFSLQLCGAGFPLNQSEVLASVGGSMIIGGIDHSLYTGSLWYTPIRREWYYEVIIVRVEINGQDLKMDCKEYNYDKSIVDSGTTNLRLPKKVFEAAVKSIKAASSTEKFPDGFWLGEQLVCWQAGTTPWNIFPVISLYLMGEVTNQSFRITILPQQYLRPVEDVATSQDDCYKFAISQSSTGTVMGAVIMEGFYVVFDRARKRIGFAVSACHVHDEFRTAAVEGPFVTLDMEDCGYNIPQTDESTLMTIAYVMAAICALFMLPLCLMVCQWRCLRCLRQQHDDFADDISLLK
Where [2] appears, read: footnote a: determined according to protocols described in Example 434A.

Sequence of truncated human beta-secretase (residues 1-458, His6-tagged at the C-terminus) (P56817 22-458): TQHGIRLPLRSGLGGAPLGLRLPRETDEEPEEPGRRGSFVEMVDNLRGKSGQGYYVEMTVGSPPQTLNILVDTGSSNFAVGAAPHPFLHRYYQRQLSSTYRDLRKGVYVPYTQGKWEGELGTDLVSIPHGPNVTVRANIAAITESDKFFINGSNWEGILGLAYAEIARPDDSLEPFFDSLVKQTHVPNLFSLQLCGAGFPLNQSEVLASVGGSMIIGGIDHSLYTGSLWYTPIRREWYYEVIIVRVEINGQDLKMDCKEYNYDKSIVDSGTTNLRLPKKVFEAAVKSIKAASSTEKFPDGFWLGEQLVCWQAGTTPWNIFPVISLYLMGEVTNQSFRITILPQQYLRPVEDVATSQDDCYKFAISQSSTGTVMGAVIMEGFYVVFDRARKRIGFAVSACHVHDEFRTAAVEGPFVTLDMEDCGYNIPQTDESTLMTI

Regarding `CN1OC2(N=C1N)c1cc(-c3cccc(C#N)c3)ccc1CC21CCS(=O)(=O)CC1` (stereo not drawn) [Compound 459], the negative logarithm of the IC50 (pIC50) in test [1] (setting [2]) was 6.16.
For the compound `CN1OC2(N=C1N)c1cc(Br)ccc1C[C@@]21C[C@@H]1c1ccccc1` (stereo partly drawn) [Compound 460], the pIC50 in test [1] is 5.01.
The compound `Cc1onc2c1CC1(CC2)Cc2ccc(Br)cc2C12N=C(N)N(C)C2=O` (stereo not drawn) [Compound 461] showed a pIC50 in test [1] (setting [2]) of 7.78.
Still for that read-out and setting: the figure for `CN1OC2(N=C1N)c1cc(Br)ccc1CC21CCc2ccccc2CC1` (stereo not drawn) [Compound 67] is 6.86.
`COC1CCC2(CC1)Cc1ccc(C3=CC(O)CC3)cc1C21N=C(N)N(C)C1=O` (stereo not drawn) [Compound 476]: the “IC50 (nM)” value in test [1] (setting [2]) came out at 33. l^a.
In test [1], `COC1CCC2(CC1)Cc1ccc(-c3cccnn3)cc1C21N=C(N)N(C)O1` (stereo not drawn) [Compound 107] had a pIC50 of 6.64.
For `CN1OC2(C=C1N)c1cc(-c3cccc(C#N)c3)ccc1CC21CCCc2ccccc2C1` (stereo not drawn) [Compound 46], the pIC50 was 6.53 in test [1] (setting [2]) and more than 5.00 at BACE.
`CN1C(=O)C2(N=C1N)c1cc(-c3cccc(C#N)c3)ccc1CC21Cc2cnncc2C1` (stereo not drawn) [Compound 471]: the pIC50 in test [1] (setting [2]) was 6.06.
Turning to `COC1CCC2(CC1)Cc1ccc(C#CC3CC3)cc1C21C=C(N)N(C)O1` (stereo not drawn) [Compound 3], the negative logarithm of the IC50 (pIC50) in test [1] (setting [2]) was 8.35; at BACE, more than 7.00.
The compound `CCOC1(F)CCC2(CC1)Cc1ccc(-c3cccc(C#N)c3)cc1C21N=C(N)N(C)O1` (stereo not drawn) [compound 49] had a pIC50 against BACE of more than 6.00.
